Experimental data reported in US20250221410A1, “SUBSTITUTED 2-C-AZINES AND SALTS THEREOF, AND USE THEREOF AS HERBICIDAL ACTIVE SUBSTANCES” (BAYER AKTIENGESELLSCHAFT, priority 2022, published 2025).

What was measured:
Type in all cases: in vivo
[1] = tested on: ABUTH: Abutilon theophrasti; assay: Post-emergence herbicidal efficacy at 1280 g/ha, ABUTH; conditions: rated visually after about 3 weeks vs untreated controls, 100% = plants have died, 0% = like control plants
Protocol: (§1) Seeds of mono- and dicotyledonous weed plants were placed in plastic pots in sandy loam soil (doubly sown with in each case one species of mono- or dicotyledonous weed plants per pot), covered with soil and cultivated in a greenhouse under controlled growth conditions. 2 to 3 weeks after sowing, the test plants were treated at the one-leaf stage. The compounds of the invention, formulated in the form of wettable powders (WP) or as emulsion concentrates (EC), were applied to the green parts of the plants as aqueous suspension or emulsion with addition of 0.5% additive at a water application rate equivalent to 600 litres per hectare. After the test plants had been kept in the greenhouse under optimum growth conditions for about 3 weeks, the activity of the preparations was rated visually in comparison to untreated controls. For example, 100% activity=the plants have died, 0% activity=like control plants. Tables A1 to A12 below show the effects of selected compounds of the general formula (I) according to Table 1 on various harmful plants and at an application rate corresponding to 1280 g/ha, which were obtained by the trial procedure specified above.

[2] = tested on: AMARE: Amaranthus retroflexus; assay: Post-emergence herbicidal efficacy at 1280 g/ha, AMARE; conditions: rated visually after about 3 weeks vs untreated controls, 100% = plants have died, 0% = like control plants
Protocol: as §1

[3] = tested on: DIGSA: Digitaria sanguinalis; assay: Post-emergence herbicidal efficacy at 1280 g/ha, DIGSA; conditions: rated visually after about 3 weeks vs untreated controls, 100% = plants have died, 0% = like control plants
Protocol: as §1

[4] = tested on: KCHSC: Kochia scoparia; assay: Post-emergence herbicidal efficacy at 1280 g/ha, KCHSC; conditions: visual rating about 3 weeks after treatment vs untreated controls
Protocol: as §1

[5] = tested on: POAAN: Poa annua; assay: Post-emergence herbicidal efficacy at 1280 g/ha, POAAN; conditions: visual rating about 3 weeks after treatment vs untreated controls
Protocol: as §1

[6] = tested on: STEME: Stellaria media; assay: Post-emergence herbicidal efficacy at 1280 g/ha, STEME; conditions: visual rating about 3 weeks after treatment vs untreated controls
Protocol: as §1

[7] = tested on: VERPE: Veronica persica; assay: Post-emergence herbicidal efficacy at 1280 g/ha, VERPE; conditions: visual rating about 3 weeks after treatment vs untreated controls
Protocol: as §1

[8] = tested on: AMARE: Amaranthus retroflexus; assay: Pre-emergence herbicide efficacy at 1280 g/ha, AMARE; conditions: visual scoring after about 3 weeks vs untreated controls
Description: (§2) Seeds of mono- and dicotyledonous weed plants were placed in plastic pots in sandy loam soil (doubly sown with one species each of mono- or dicotyledonous weed plants per pot) and covered with soil. The compounds of the invention, formulated in the form of wettable powders (WP) or as emulsion concentrates (EC), were then applied to the surface of the covering soil as aqueous suspension or emulsion with addition of 0.5% additive at a water application rate of 600 litres per hectare (converted). After the treatment, the pots were placed in a greenhouse and kept under good growth conditions for the test plants. After about 3 weeks, the efficacy of the preparations was scored visually in comparison with untreated controls as percentages. For example, 100% activity=the plants have died, 0% activity=like control plants. Tables C1 to C12 below show the effects of selected compounds of the general formula (I) according to Table 1 on various harmful plants and at an application rate corresponding to 1280 g/ha, which were obtained by the trial procedure specified above.

[9] = tested on: DIGSA: Digitaria sanguinalis; assay: Pre-emergence herbicide efficacy at 1280 g/ha, DIGSA; conditions: visual scoring after about 3 weeks vs untreated controls
Description: as §2

[10] = tested on: ECHCG: Echinochloa crus-galli; assay: Pre-emergence herbicide efficacy at 1280 g/ha, ECHCG; conditions: visual scoring after about 3 weeks vs untreated controls
Description: as §2

[11] = tested on: KCHSC: Kochia scoparia; assay: Pre-emergence herbicide efficacy at 1280 g/ha, KCHSC; conditions: visual scoring after about 3 weeks vs untreated controls
Description: as §2

[12] = tested on: POAAN: Poa annua; assay: Pre-emergence herbicide efficacy at 1280 g/ha, POAAN; conditions: visual scoring after about 3 weeks vs untreated controls
Description: as §2

[13] = tested on: SETVI: Setaria viridis; assay: Pre-emergence herbicide efficacy at 1280 g/ha, SETVI; conditions: visual scoring vs untreated controls
Description: as §2

[14] = tested on: AMARE: Amaranthus retroflexus; assay: Post-emergence herbicidal efficacy at 80 g/ha, AMARE; conditions: visual rating about 3 weeks after treatment vs untreated controls
Protocol: Seeds of monocotyledonous and dicotyledonous weeds and crop plants were placed in sandy loam in plastic or organic planting pots, covered with soil and cultivated in a greenhouse under controlled growth conditions. 2 to 3 weeks after sowing, the test plants were treated at the one-leaf stage. The compounds of the invention, formulated in the form of wettable powders (WP) or as emulsion concentrates (EC), were then sprayed onto the green parts of the plants as aqueous suspension or emulsion with addition of 0.5% additive at a water application rate of 600 l/ha (converted). After the test plants had been kept in the greenhouse under optimum growth conditions for about 3 weeks, the activity of the preparations was rated visually in comparison to untreated controls. For example, 100% activity=the plants have died, 0% activity=like control plants. Tables B1 to B10 below show the effects of selected compounds of the general formula (I) according to Table 1 on various harmful plants and an application rate corresponding to 80 g/ha, which were obtained by the experimental procedure mentioned above.

[15] = tested on: AMARE: Amaranthus retroflexus; assay: Pre-emergence herbicide efficacy at 80 g/ha, AMARE; conditions: scored visually after about 3 weeks
Description: Seeds of monocotyledonous and dicotyledonous weed plants and crop plants were placed in plastic or organic planting pots and covered with soil. The compounds of the invention, formulated in the form of wettable powders (WP) or as emulsion concentrates (EC), were then applied to the surface of the covering soil as aqueous suspension or emulsion with addition of 0.5% additive at a water application rate equivalent to 600 l/ha. After the treatment, the pots were placed in a greenhouse and kept under good growth conditions for the test plants. After about 3 weeks, the efficacy of the preparations was scored visually in comparison with untreated controls as percentages. For example, 100% activity=the plants have died, 0% activity=like control plants. Tables D1 to D12 below show the effects of selected compounds of the general formula (I) according to Table 1 on various harmful plants and an application rate corresponding to 80 g/ha, which were obtained by the experimental procedure mentioned above.

[16] = tested on: ECHCG: Echinochloa crus-galli; assay: Post-emergence herbicidal efficacy at 1280 g/ha, ECHCG; conditions: rated visually after about 3 weeks vs untreated controls, 100% = plants have died, 0% = like control plants
Protocol: as §1

[17] = tested on: SETVI: Setaria viridis; assay: Post-emergence herbicidal efficacy at 1280 g/ha, SETVI; conditions: visual rating about 3 weeks after treatment vs untreated controls
Protocol: as §1

[18] = tested on: ABUTH: Abutilon theophrasti; assay: Pre-emergence herbicide efficacy at 1280 g/ha, ABUTH; conditions: visual scoring after about 3 weeks vs untreated controls
Description: as §2

[19] = tested on: STEME: Stellaria media; assay: Pre-emergence herbicide efficacy at 1280 g/ha, STEME; conditions: visual scoring vs untreated controls
Description: as §2

[20] = tested on: VERPE: Veronica persica; assay: Pre-emergence herbicide efficacy at 1280 g/ha, VERPE; conditions: visual scoring vs untreated controls
Description: as §2

| Structure (SMILES) | Post-emergence efficacy at 1280 g/ha against ABUTH in % [1] [%] | Post-emergence efficacy at 1280 g/ha against AMARE in % [2] [%] | Post-emergence efficacy at 1280 g/ha against DIGSA in % [3] [%] | Post-emergence efficacy against KCHSC [4] [%] | Post-emergence efficacy against POAAN [5] [%] | Post-emergence efficacy against STEME [6] [%] | Post-emergence efficacy against VERPE [7] [%] | Pre-emergence efficacy against AMARE [8] [%] | Pre-emergence efficacy against DIGSA [9] [%] | Pre-emergence efficacy against ECHCG [10] [%] | Pre-emergence efficacy against KCHSC [11] [%] | Pre-emergence efficacy against POAAN [12] [%] | Pre-emergence efficacy against SETVI in % [13] [%] | Post-emergence efficacy against AMARE [14] [%] | Pre-emergence efficacy against AMARE in % [15] [%] | Post-emergence efficacy at 1280 g/ha against ECHCG in % [16] [%] | Post-emergence efficacy against SETVI [17] [%] | Pre-emergence efficacy against ABUTH [18] [%] | Pre-emergence efficacy against STEME in % [19] [%] | Pre-emergence efficacy against VERPE in % [20] [%] |
| --- | --- | --- | --- | --- | --- | --- | --- | --- | --- | --- | --- | --- | --- | --- | --- | --- | --- | --- | --- | --- |
| FC(F)(F)CCCc1ccccc1Cc1ncc(Cl)cn1 [Example 1-1] | 90 | 100 | 90 | 90 | 90 | 100 | 100 | 100 | 100 | 90 | 90 | 90 | 90 |  |  |  |  |  |  |  |
| O=S(=O)(CCC(F)(F)F)Oc1c(F)cccc1Cc1ncc(F)cn1 [Example 1-17] |  |  |  |  |  |  |  |  |  |  |  |  |  | 90 | 80 |  |  |  |  |  |
| O=S(=O)(CCC(F)(F)F)Oc1c(Cl)cccc1Cc1ncc(F)cn1 [Example 1-21] |  |  |  |  |  |  |  |  |  |  |  |  |  | 90 | 90 |  |  |  |  |  |
| Cc1cccc(Cc2ncc(Cl)cn2)c1Oc1ccc(F)cc1 [Example 1-31] | 100 | 90 |  |  | 90 | 90 | 90 | 90 | 100 | 100 |  | 100 | 100 |  |  | 100 | 90 |  |  |  |
| N#CC(c1ncc(F)cn1)c1ccccc1Cc1ccc(F)cc1 (centres unmarked) [Example 1-81] | 90 | 90 |  |  |  |  | 90 |  |  |  |  | 100 |  |  |  | 90 |  |  |  |  |
| Fc1ccc(Oc2ccccc2Cc2ncc(Br)cn2)cc1 [Example 1-87] | 100 | 100 |  | 100 | 100 | 90 | 100 | 100 | 100 | 90 |  |  | 100 |  |  | 90 | 90 |  |  |  |
| Fc1cnc(Cc2ccccc2Oc2ncc(Cl)cc2F)nc1 [Example 1-90] | 90 | 100 | 90 | 100 | 100 | 90 | 100 | 100 | 100 | 100 | 100 | 100 | 90 |  |  |  |  | 100 | 90 | 100 |
